The conditions of series [1]: female, Nu/Nu (NU-Foxn1^nu) athymic nude, mouse, in vivo, po, 150 mg/kg, 14 days.
Text: (§1) The animals used in this study were Nu/Nu (NU-Foxn1^nu) (athymic nude) physiologically normal female mice supplied by Charles River. At the time of inoculation, the age of the animals was 5-8 weeks. Sixty total animals were used and animals were not replaced during the course of this study. Mice were identified with a transponder. The animals were housed in individually ventilated microisolator cages and allowed to acclimate for at least 5-7 days. The animals were maintained under pathogen-free conditions and given Teklad Global Diet® 2920x irradiated pellets for food and autoclaved water ad libitum.
(§2) Compound ldihydrochloride (2HCl) was provided as a crystalline powder and stored at 2-8° C. protected from light. The administered form of Compound 1 2HCl was a clear solution. For intraperitoneal administration, Compound 1 2HCl was reconstituted in PBS. For oral administration, Compound 1 2HCl was reconstituted in 0.5% Methylcellulose (MC) in water. The salt: base ratio was 1.14:1 (i.e., to obtain 100 mg of Compound 1 free base, 114 mg of Compound 1 dihydrochloride salt was weighed out). Dose levels of Compound 1 were based on the free base, not the salt. Compound 1 2HCl in administered form was prepared fresh immediately prior to use.
(§3) Animals were randomized using random equilibration of tumor volume into one of six study groups, as shown in Table 22 (Groups 1-6), with 10 animals in each group.
(§4) Group 1 was administered vehicle control alone (without Compound 1 2HCl) intraperitoneally (IP) three times weekly (TIW) until the end of the study. PBS was used as the vehicle control and was administered at a volume of 10 mL/kg.
(§5) Groups 2-6 were administered Compound 1 2HCl at a volume of 10 mL/kg three times weekly (TIW) until the end of the study with the doses as described next.
(§6) Group 2 received 75 mg/kg Compound 1 2HCl via intraperitoneal administration.
(§7) Group 3 received 75 mg/kg Compound 1 2HCl via oral administration (PO). Group 4 received 100 mg/kg Compound 1 2HCl via oral administration. Group 5 received 125 mg/kg Compound 1 2HCl via oral administration. Group 6 received 150 mg/kg Compound 1 2HCl via oral administration. […]
(§8) Tumor volume and body weight were measured twice weekly with gross observations daily. […]
(§9) For data analysis, simple statistics (ANOVA) will be conducted on tumor volumes to verify significance of treatment groups relative to control. Growth curves will be constructed and percent tumor growth inhibition (TGI) will be calculated as a means to assess the effect of the single-agent therapy regimens. […]
(§10) The Materials and Methods used were the same as discussed above for Example 3, except for the lengths of treatment for Groups 1-4. […] Tumor growth and body weight were measured twice weekly with gross observations daily for Groups 1-5 until Day 117.
Series [2] is described as follows: Body weight change / dose tolerance in the MDA-MB-468 xenograft study.
Text: as §1, §2, §3, §4, §5, §6, §7, §8, §9, §10

Structures are written as SMILES.

Consider `CC(C)NCCCn1c(Sc2cc3c(cc2I)OCO3)nc2c(N)ncnc21` [Compound 1 2HCl], for which, in series [1], the Treatment toxicity result is listed as “stopped on Day 14 due to toxicity”. The Body weight change result in series [2] (100 mg/kg PO, during and after treatment (to Day 117)) is “minimal effects on body weight”; in series [2] (Group 2: 75 mg/kg IP, Day 5 and Day 8), “greater decrease in body weight”.
